# In patent US20250361239A1, “PROTEIN DEGRADERS AND USES THEREOF” (ZHUHAI YUFAN BIOTECHNOLOGIES CO., LTD., priority 2022, published 2025):
# System: HL60 cells
# Experiment: HL60 cell killing experiment (CellTiter-Glo cell viability)
# Type: cell-based
# Conditions: Homo sapiens, HL-60, 48 h incubation, CTG luminescence
# Method: HL60 cell lines were purchased from ATCC (Cat #ATCC® CCL-240™), IMDM media were purchased from ATCC (Cat #ATCC® 30-2005™), FBS was purchased from Gibco (Cat #10091148), celltiter-glo luminescent cell viability assay was purchased from promega (Cat #G7572), and 96-well plates were purchased from corning (Cat #3610).
# The effect of compounds on the growth of HL60 cells was determined by measuring cell viability. Firstly, cells in the logarithmic growth phase were collected and centrifuged, and the culture supernatant was discarded. The centrifuged cells were resuspended in a fresh complete medium, and the cell density was adjusted to 5×10^4 cells/mL. The resuspended cells were inoculated into two opaque 96-well cell culture plates at 100 μL of cell suspension per well, and the cell culture plates were incubated in a cell incubator at 37° C. for 4 h. After 4 h, dilutions (20 μL) of compounds with different concentrations were added. After one of the cell plates was cooled to room temperature, 60 μL of CTG reagent was added, and the luminescence values were read on the instrument as G0. The other one was incubated in a cell incubator for 48 h. After 48 h, 60 μL of CTG reagent was added, and the luminescence values were read on the instrument as G3.
# According to the corresponding proliferation rate and concentration of each gradient concentration well, a gradient curve of cell proliferation was fitted using XLFit software, and the GI50 values of compounds were calculated.
row,Structure (SMILES),GI50 [nM]
1,O=C1CCC(N2C(=O)c3cccc(NCc4cccc(C(=O)NC5CCC(c6nc7cccnc7[nH]6)CC5)c4)c3C2=O)C(=O)N1 (centres unmarked) [Example 18],< 100
2,Cn1c2cnccc2nc1[C@H]1CC[C@H](NC(=O)c2cccc(CNc3cccc4c3C(=O)N(C3CCC(=O)NC3=O)C4=O)c2)CC1 (some centres unmarked) [Example 34],< 100
3,O=C1CCC(N2C(=O)c3cccc(NCCCCC(=O)NC4CCC(c5nc6ccccc6[nH]5)CC4)c3C2=O)C(=O)N1 (centres unmarked) [Example 5],< 100
4,O=C1CCC(N2C(=O)c3cccc(NCc4cccc(C(=O)NC5CCC(c6nc7c(cnc8[nH]cc(C9CCOCC9)c87)[nH]6)CC5)c4)c3C2=O)C(=O)N1 (centres unmarked) [Example 115],< 100
5,Cn1c2cnccc2nc1[C@H]1CC[C@H](C(=O)Nc2cccc(CNc3cccc4c3C(=O)N(C3CCC(=O)NC3=O)C4=O)c2)CC1 (some centres unmarked) [Example 37],< 100
6,Cn1c(C2CCC(NC(=O)c3cc(CNc4cccc5c4C(=O)N(C4CCC(=O)NC4=O)C5=O)ccn3)CC2)nc2ccccc21 (centres unmarked) [Example 35],< 100
7,COc1cnc2sc([C@H]3CC[C@H](C(=O)Nc4cccc(CNc5cccc6c5C(=O)N(C5CCC(=O)NC5=O)C6=O)c4)CC3)nc2c1 (some centres unmarked) [Example 98],< 100
8,Cn1c(C2CCC(NC(=O)c3cccc(CNc4cccc5c4C(=O)N(C4CCC(=O)NC4=O)C5=O)c3)CC2)nc2c3cc[nH]c3ncc21 (centres unmarked) [Example 100],< 100
9,Cn1c(C2CCC(NC(=O)CCCCNc3cccc4c3C(=O)N(C3CCC(=O)NC3=O)C4=O)CC2)nc2ccncc21 (centres unmarked) [Example 8],< 100
10,O=C1CCC(N2C(=O)c3cccc(NCc4cccc(C(=O)NC5CCC(c6cc7sccc7s6)CC5)c4)c3C2=O)C(=O)N1 (centres unmarked) [Example 66],< 100
11,Cn1c2cc(N)ccc2nc1[C@H]1CC[C@H](NC(=O)c2cc(CNc3cccc4c3C(=O)N(C3CCC(=O)NC3=O)C4=O)ccn2)CC1 (some centres unmarked) [Example 130],< 100
12,Cn1c(C2CCC(NC(=O)c3cc(COc4cccc5c4C(=O)N(C4CCC(=O)NC4=O)C5=O)ccn3)CC2)nc2ccncc21 (centres unmarked) [Example 48],< 100
13,Cn1c(C2CCC(NC(=O)c3cccc(CNc4cccc5c4C(=O)N(C4CCC(=O)NC4=O)C5=O)n3)CC2)nc2ccncc21 (centres unmarked) [Example 21],< 100
14,O=C1CCC(N2C(=O)c3cccc(NCc4cccc(C(=O)NC5CCC(c6nc7cccnc7n6C6CC6)CC5)c4)c3C2=O)C(=O)N1 (centres unmarked) [Example 82],< 100
15,COC1CCCC(NC(=O)c2cccc(CNc3cccc4c3C(=O)N(C3CCC(=O)NC3=O)C4=O)c2)C1 (centres unmarked) [Example 2],< 100
16,O=C1CCC(N2C(=O)c3cccc(NCc4cccc(C(=O)NC5CCC(c6n[nH]c7ccccc67)CC5)c4)c3C2=O)C(=O)N1 (centres unmarked) [Example 14],< 100
17,Cn1c(C2CCC(NC(=O)CCCCNc3cccc4c3C(=O)N(C3CCC(=O)NC3=O)C4=O)CC2)nc2c3c(C4CCCCC4)c[nH]c3ncc21 (centres unmarked) [Example 110],< 100
18,O=C1CCC(N2C(=O)c3cccc(NCc4ccc(F)c(C(=O)N[C@H]5CC[C@H](c6nc7cccnc7s6)CC5)c4)c3C2=O)C(=O)N1 (some centres unmarked) [Example 80],< 100
19,Cn1c2cccnc2nc1[C@H]1CC[C@H](NC(=O)c2cc(CNc3cccc4c3C(=O)N(C3CCC(=O)NC3=O)C4=O)ccn2)CC1 (some centres unmarked) [Example 42],< 100

# Molecular target: T1, GSPT1 (Homo sapiens, UniProt P15170+Q96SW2)
# T1 construct: host or cells: HEK293
# Experiment: Degradation of GSPT1 by the compounds (HiBiT signal in GSPT1/HEK293 hibit cells)
# Type: cell-based
# Conditions: 6 h incubation, Nano Glo HiBiT Lytic Detection
# Method: GSPT1/HEK293 hibit cell lines were constructed by Shanghai BioDuro Co., Ltd., HEK293 cell lines were purchased from ATCC (Cat #ATCC® CRL-1573™), DMEM media were purchased from ATCC (Cat #ATCC® 30-2002™), FBS was purchased from Gibco (Cat #10091148), Nano Glo HiBiT Lytic Detection System was purchased from Promega (Cat #N3040), and 96-well plates were purchased from coming (Cat #3610).
# The degradation of GSPT1 by the compounds was determined by measuring the intensity of hibit signals in cells. Firstly, the cells were digested with pancreatin, and the digestion was then terminated with medium. The cells were centrifuged, and the supernatant was discarded. The centrifuged cells were resuspended in a fresh complete medium, and the cell density was adjusted to 2.5×10^4 cells/mL. The resuspended cells were inoculated into an opaque 96-well cell culture plate at 100 μL of cell suspension per well, and the cell culture plate was incubated in a cell incubator at 37° C. overnight. The next day, dilutions (20 μL) of compounds with different concentrations were added, and the plate was incubated in a cell incubator for 6 h. After 6 h, 60 μL of Nano Glo HiBiT Lytic Detection System reagent was added and the luminescence values were read on the instrument.
# According to the corresponding degradation rate and concentration of each gradient concentration well, a gradient curve of degradation rate was fitted using XLFit software, and the DC50 values of compounds were calculated.
# T1 sequence (P15170 whole entry): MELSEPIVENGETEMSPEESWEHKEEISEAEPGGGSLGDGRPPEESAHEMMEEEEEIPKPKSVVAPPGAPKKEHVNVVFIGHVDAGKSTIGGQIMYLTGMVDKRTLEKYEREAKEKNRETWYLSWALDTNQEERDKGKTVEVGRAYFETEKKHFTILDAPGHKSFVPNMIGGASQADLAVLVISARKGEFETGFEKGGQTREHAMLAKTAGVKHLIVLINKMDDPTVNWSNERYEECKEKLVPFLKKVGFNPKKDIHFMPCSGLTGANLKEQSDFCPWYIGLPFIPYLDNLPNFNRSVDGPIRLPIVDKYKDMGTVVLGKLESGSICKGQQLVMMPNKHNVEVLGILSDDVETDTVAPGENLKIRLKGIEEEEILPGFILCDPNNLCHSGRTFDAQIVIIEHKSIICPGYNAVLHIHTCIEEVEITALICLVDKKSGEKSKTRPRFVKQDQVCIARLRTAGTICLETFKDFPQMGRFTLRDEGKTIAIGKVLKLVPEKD
# T1 sequence (Q96SW2 whole entry): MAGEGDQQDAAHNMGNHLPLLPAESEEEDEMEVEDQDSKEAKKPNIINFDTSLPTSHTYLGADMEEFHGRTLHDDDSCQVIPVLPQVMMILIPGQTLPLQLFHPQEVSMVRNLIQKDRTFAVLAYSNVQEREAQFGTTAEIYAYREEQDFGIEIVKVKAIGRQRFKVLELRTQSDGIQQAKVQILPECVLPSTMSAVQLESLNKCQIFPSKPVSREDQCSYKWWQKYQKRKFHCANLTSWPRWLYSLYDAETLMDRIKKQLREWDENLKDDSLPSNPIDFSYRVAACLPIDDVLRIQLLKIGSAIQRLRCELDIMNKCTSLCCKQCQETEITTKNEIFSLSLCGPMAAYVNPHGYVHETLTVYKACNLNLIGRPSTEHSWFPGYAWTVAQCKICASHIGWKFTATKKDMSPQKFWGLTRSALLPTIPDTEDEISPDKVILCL
# T1 sequence (Q16531 whole entry partner): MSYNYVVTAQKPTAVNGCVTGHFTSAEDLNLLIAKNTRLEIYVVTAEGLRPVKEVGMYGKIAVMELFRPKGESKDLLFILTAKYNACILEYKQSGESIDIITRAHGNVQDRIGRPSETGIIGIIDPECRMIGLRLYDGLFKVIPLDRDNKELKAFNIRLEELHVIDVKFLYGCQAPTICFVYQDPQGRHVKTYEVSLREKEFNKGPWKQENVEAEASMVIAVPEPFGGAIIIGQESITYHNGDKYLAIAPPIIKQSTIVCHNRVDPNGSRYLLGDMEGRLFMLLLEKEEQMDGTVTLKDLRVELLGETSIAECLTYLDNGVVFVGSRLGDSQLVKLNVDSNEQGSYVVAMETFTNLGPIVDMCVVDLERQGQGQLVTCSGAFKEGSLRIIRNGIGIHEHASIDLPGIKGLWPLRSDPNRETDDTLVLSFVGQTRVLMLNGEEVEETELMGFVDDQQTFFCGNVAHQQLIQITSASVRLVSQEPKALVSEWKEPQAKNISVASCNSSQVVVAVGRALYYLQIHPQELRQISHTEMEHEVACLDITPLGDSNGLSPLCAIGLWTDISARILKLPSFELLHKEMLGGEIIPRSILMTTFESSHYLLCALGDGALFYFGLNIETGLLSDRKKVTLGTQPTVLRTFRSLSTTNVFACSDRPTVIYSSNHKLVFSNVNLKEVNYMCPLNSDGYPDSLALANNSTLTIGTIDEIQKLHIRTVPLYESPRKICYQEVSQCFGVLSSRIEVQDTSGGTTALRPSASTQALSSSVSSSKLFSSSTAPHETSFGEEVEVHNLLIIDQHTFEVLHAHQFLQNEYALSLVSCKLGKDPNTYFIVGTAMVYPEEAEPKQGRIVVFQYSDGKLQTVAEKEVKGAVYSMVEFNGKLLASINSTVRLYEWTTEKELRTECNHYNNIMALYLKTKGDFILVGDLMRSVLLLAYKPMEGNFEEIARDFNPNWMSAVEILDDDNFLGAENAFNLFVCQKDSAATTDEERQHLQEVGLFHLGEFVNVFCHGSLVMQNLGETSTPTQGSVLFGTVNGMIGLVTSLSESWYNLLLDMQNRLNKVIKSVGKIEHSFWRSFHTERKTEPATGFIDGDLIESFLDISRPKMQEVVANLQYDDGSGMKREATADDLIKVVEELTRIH
row,Structure (SMILES),DC50 [nM]
1,O=C1CCC(N2C(=O)c3cccc(NCc4cccc(C(=O)NC5CCC(c6nc7cccnc7[nH]6)CC5)c4)c3C2=O)C(=O)N1 (centres unmarked) [Example 18],< 100
2,Cn1c2cnccc2nc1[C@H]1CC[C@H](NC(=O)c2cccc(CNc3cccc4c3C(=O)N(C3CCC(=O)NC3=O)C4=O)c2)CC1 (some centres unmarked) [Example 34],< 100
3,O=C1CCC(N2C(=O)c3cccc(NCCCCC(=O)NC4CCC(c5nc6ccccc6[nH]5)CC4)c3C2=O)C(=O)N1 (centres unmarked) [Example 5],< 100
4,O=C1CCC(N2C(=O)c3cccc(NCc4cccc(C(=O)NC5CCC(c6nc7c(cnc8[nH]cc(C9CCOCC9)c87)[nH]6)CC5)c4)c3C2=O)C(=O)N1 (centres unmarked) [Example 115],< 100
5,Cn1c2cnccc2nc1[C@H]1CC[C@H](C(=O)Nc2cccc(CNc3cccc4c3C(=O)N(C3CCC(=O)NC3=O)C4=O)c2)CC1 (some centres unmarked) [Example 37],< 100
6,Cn1c(C2CCC(NC(=O)c3cc(CNc4cccc5c4C(=O)N(C4CCC(=O)NC4=O)C5=O)ccn3)CC2)nc2ccccc21 (centres unmarked) [Example 35],< 100
7,COc1cnc2sc([C@H]3CC[C@H](C(=O)Nc4cccc(CNc5cccc6c5C(=O)N(C5CCC(=O)NC5=O)C6=O)c4)CC3)nc2c1 (some centres unmarked) [Example 98],< 100
8,Cn1c(C2CCC(NC(=O)c3cccc(CNc4cccc5c4C(=O)N(C4CCC(=O)NC4=O)C5=O)c3)CC2)nc2c3cc[nH]c3ncc21 (centres unmarked) [Example 100],< 100
9,Cn1c(C2CCC(NC(=O)CCCCNc3cccc4c3C(=O)N(C3CCC(=O)NC3=O)C4=O)CC2)nc2ccncc21 (centres unmarked) [Example 8],< 100
10,O=C1CCC(N2C(=O)c3cccc(NCc4cccc(C(=O)NC5CCC(c6cc7sccc7s6)CC5)c4)c3C2=O)C(=O)N1 (centres unmarked) [Example 66],< 100
11,Cn1c2cc(N)ccc2nc1[C@H]1CC[C@H](NC(=O)c2cc(CNc3cccc4c3C(=O)N(C3CCC(=O)NC3=O)C4=O)ccn2)CC1 (some centres unmarked) [Example 130],< 100
12,Cn1c(C2CCC(NC(=O)c3cc(COc4cccc5c4C(=O)N(C4CCC(=O)NC4=O)C5=O)ccn3)CC2)nc2ccncc21 (centres unmarked) [Example 48],< 100
13,Cn1c(C2CCC(NC(=O)c3cccc(CNc4cccc5c4C(=O)N(C4CCC(=O)NC4=O)C5=O)n3)CC2)nc2ccncc21 (centres unmarked) [Example 21],< 100
14,O=C1CCC(N2C(=O)c3cccc(NCc4cccc(C(=O)NC5CCC(c6nc7cccnc7n6C6CC6)CC5)c4)c3C2=O)C(=O)N1 (centres unmarked) [Example 82],< 100
15,COC1CCCC(NC(=O)c2cccc(CNc3cccc4c3C(=O)N(C3CCC(=O)NC3=O)C4=O)c2)C1 (centres unmarked) [Example 2],< 100
16,O=C1CCC(N2C(=O)c3cccc(NCc4cccc(C(=O)NC5CCC(c6n[nH]c7ccccc67)CC5)c4)c3C2=O)C(=O)N1 (centres unmarked) [Example 14],< 100
17,Cn1c(C2CCC(NC(=O)CCCCNc3cccc4c3C(=O)N(C3CCC(=O)NC3=O)C4=O)CC2)nc2c3c(C4CCCCC4)c[nH]c3ncc21 (centres unmarked) [Example 110],< 100
18,O=C1CCC(N2C(=O)c3cccc(NCc4ccc(F)c(C(=O)N[C@H]5CC[C@H](c6nc7cccnc7s6)CC5)c4)c3C2=O)C(=O)N1 (some centres unmarked) [Example 80],< 100
19,Cn1c2cccnc2nc1[C@H]1CC[C@H](NC(=O)c2cc(CNc3cccc4c3C(=O)N(C3CCC(=O)NC3=O)C4=O)ccn2)CC1 (some centres unmarked) [Example 42],< 100
